Columns and labels:
[1] = system: mPanINs of P48-Cre; LSL-K-rasG12D mice; assay: mPanIN proliferation by BrdU incorporation (IHC) in P48-Cre; LSL-K-rasG12D mice; type: in vivo, mouse; details: 60 mg/kg/day IP x 10 days, mice 7-9 months old, vs untreated age-matched mice, n=3/group
Procedure: FIG. 18. ATM inhibits proliferation of mPanINs in P48-Cre; LSL-K-ras^G12D mice. Three older P48-Cre; LSL-K-ras^G12D mice (7-9 months of age) were administered ATM (60 mg/kg/day) by IP injection for 10 days. Mice were injected with BrdU prior to sacrifice. Pancreata were isolated and analyzed by IHC for BrdU incorporation, as an indicator of the proliferative activity of the tissue. BrdU incorporation was compared to untreated, age-matched P48-Cre; LSL-K-ras^G12D mice. n=3/group.
(§1) ATM reduced mPanIN proliferation and SHH expression. In order to investigate the potential therapeutic role of ATM in pancreatic cancer, acute ATM treatment (60 mg/kg/day×10 days) of older P48-Cre; LSL-K-rasG12D mice (PC/+, Ras/+; 7-9 months old, they have already developed PanINs and adenomas) was performed. […] These same mice were analyzed for pancreatic expression of SHH. SHH increased in expression in P48-Cre; LSL-K-rasG12D mice, similar to PKCι.

[2] = system: Panc-1, Capan-1, and MiaPaCa-2 human pancreatic cancer cells; assay: Soft agar colony formation (anchorage-independent growth); type: cell-based; details: range over three PDAC cell lines (Panc-1, Capan-1, Miapaca-2); increasing concentrations
Procedure: (§2) FIG. 13. Aurothiomalate (ATM) inhibits PDAC cells soft agar colony formation and invasion. A) Dose response curves to the growth inhibitory effects of ATM on soft agar colony formation in Panc-1, Capan-1, and MiaPaCa-2 human pancreatic cancer cells. B) Panc-1 cells were pre-incubated in increasing concentrations of ATM and then assayed for in vitro invasion through Matrigel matrix.
Panc-1 and MiaPaCa-2 cells (5×10^3) were plated in soft agar and assessed for anchorage-independent growth as described elsewhere (Regala et al., J. Biol. Chem., 280:31109-15 (2005)).
(§3) Three PDAC cell lines (Panc-1, Capan-1, and Miapaca-2), expressing varying amounts of PKCι (FIG. 13), were assayed for the ability to form colonies in soft agar (anchorage-independent growth) in the presence of increasing concentrations of aurothiomalate (ATM, FIG. 13A).

SHH expression = assay: Pancreatic SHH mRNA expression (qPCR) in P48-Cre; LSL-K-rasG12D mice; type: in vivo, mouse; details: 60 mg/kg/day IP x 10 days, mice 7-9 months old, vs untreated age-matched mice, n=1/group
Procedure: FIG. 19. ATM inhibits induction of SHH expression in mPanINs of P48-Cre; LSL-K-ras^G12D mice. Three older P48-Cre; LSL-K-ras^G12D mice (7-9 months of age) were administered ATM (60 mg/kg/day) by IP injection for 10 days. mRNA was isolated from pancreata from treated, and untreated, age-matched P48-Cre; LSL-K-ras^G12D mice and analyzed by qPCR analysid for expression of SHH. n=1/group.
as §1

Panc-1 cells = assay: In vitro invasion through Matrigel matrix; type: cell-based, human; details: 48 hour pre-incubation
Procedure: as §2, §3

O=C(O)CC([S-])C(=O)O.[Au+] (stereo not shown) [ATM, aurothiomalate]
proliferation in the mPanINs (BrdU incorporation) [1]: significantly reduced
IC50 [2]: 20 to 61 µM
pancreatic SHH expression (SHH expression): significantly reduced
IC50 (Panc-1 cells): 7.4 µM

Reference: US20110190390A1, “METHODS AND MATERIALS FOR TREATING PANCREATIC CANCER” (priority 2010, published 2011)
